According to patent publication US20190076440A1, “TREATMENT OF TISSUE DISORDERS” (priority 2016, published 2019):

Legend:
[1] = test system: MCDS mice (homozygous N617K collagen X mutation); assay: Skeletal measurements by X-ray (hip dysplasia angle, bone growth) in MCDS mice; assay type: in vivo, mouse
Procedure: FIG. 2 illustrates the effect of carbamazepine on the growth plate pathology associated with MCDS. 3 week old MCDS mice were treated with CBZ for a period of one week. Untreated MCDS mice and mice wild-type for collagen X (WT) were used as controls. (a) H+E staining of the tibial growth plate at 4 weeks of age. (b) Immunohistochemistry for Grp78 and (c) Immunohistochemistry for collagen X. Yellow bars show the hypertrophic zone. Scale bars equal to 100 μM in all cases. (d) is a table showing growth plate zone measurements at 4 weeks of age. Mean±SEM. Number of animals shown in brackets. Significance between mutant untreated mice and treated mice shown by the asterisk. (e) Western blots of rib growth plate cartilage at 4 weeks of age for Grp78, ATF4, p62/SQSTM1 and LC3-II alongside the associated coomassie blue stain used as a loading control. Quantification of these blots against the coomassie protein level is shown in supplementary S4. (f) X-ray images of the pelvis at 6 weeks of age. The angle between the lines was measured in a minimum of 5 animals and a graph showing the mean±SEM is shown in (g). Graphs showing the percentage increase in growth of the (h) tibia and (i) femur from 3 weeks of age.
The generation and genotyping of the Col10a1 p.N617K mouse line has been described previously (Rajpar et al 2009). Mice homozygous for the MCDS-causing N617K collagen X mutation were x-rayed at 3 weeks of age and treated with carbamazepine (250 mg/kg/day) for up to 21 days via a subcutaneous implantation of a slow-release pellet (Innovative research of America USA C-113) whilst the mouse was under anaesthetic. The incision was sutured closed, glued using Vetbond tissue adhesive (Santa-Cruz sc-361931) and the mice given an appropriate dose of buprenorphine painkiller depending on their body weight. Male mice were X-rayed once per week in order monitor bone growth; female mice were sacrificed after 1 week of treatment either by cervical dislocation or by carbon dioxide overdose under the provisions of the Animals (Scientific Procedures) Act 1986 and tissues collected for histological analysis. All procedures were carried out according to Home Office regulations.
(§1) Mice were anaesthetised using isofluorane, placed on X-Ray hyperfilm (GE healthcare, GZ28906850) and X-Rayed using a Flaxitron X-ray specimen radiography system (Flaxitron MX-20). X-Rays were performed prior to implantation and once per week for a maximum of 3 weeks. The analysis of the skeleton was done using Growbase software (Certus Technology Associated Limited, UK) to calculate the length of the femur, tibia and inner canthal distance. The bone growth rate was determined as a percentage increase relative to measurements at 3 weeks of age. Image J was used to analyse the angle of deflection from the vertical tuberosity of the ischium to determine the severity of the hip dysplasia phenotype. All measurements were analysed by ANOVA to determine significance using GraphPad Prism 6.0 software.

WT mice = assay: CBZ treatment of wild-type mice (growth plate, collagen X localisation, bone growth); assay type: in vivo, mouse
Procedure: FIG. 7 illustrates the effect of CBZ treatment of WT mice Wild-type (WT) mice were treated with CBZ for a period of one week. Untreated mice were used as controls. (a)H+E images of the tibial growth plate at 4 weeks of age. (b) Table showing measurements of the growth plate zones. Mean±SEM. Number of animals shown in bracket. (c) Immunohistochemistry for collagen X in the tibial growth plate. Percentage increase in bone growth of the (d) Tibia and (e) Femur from 3 weeks of age. Mean±SEM.
as §1
Growth plate zone widths were measured on images of known magnification as described previously (Rajpar et al 2009). The beginning of the proliferative zone was defined as the point at which the individual round chondrocytes flattened out and arranged into columns. The start of the hypertrophic zone was defined as the point at which proliferative chondrocytes rounded up and enlarged. The end of the hypertrophic zone was defined as the vascular invasion front. For each animal the data from three separate sections, spaced a minimum of 50 μm apart were averaged. Measurements were analysed for statistical significance by one-way ANOVA using GraphPad Prism 6.0 software. […]

R992C Col2a1 SEDC mice = assay: TUNEL assay of chondrocyte apoptosis in the tibial growth plate of SEDC mice; assay type: in vivo; settings: single treated mouse, no quantitative analysis
Procedure: The effect of CBZ on p.R992C Col2a1 mutant mice (spondyloepiphyseal dysplasia congenital (SEDC) model mice) was tested.
R992C Col2a1 SEDC mice were treated with carbamazepine (CBZ), to determine whether treatment ameliorates the disease phenotype. Increased chondrocyte apoptosis within the epiphyseal growth plate is associated with the onset of disease from 3 weeks in mouse models expressing this mutant form of COL2A1.
Chondrocyte apoptosis was detected by a Terminal deoxynucleotide transferase dUTP nick end labelling (TUNEL) assay. Tibial growth plates from wild type and SEDC mutant mice were stained according to the manufactures instructions before being imaged (data not shown).

[2] = 3 weeks of treatment, vs untreated

NC(=O)N1c2ccccc2C=Cc2ccccc21 [CBZ, Carbamazepine]
fold increase in the rate of femur bone growth [1, 2]: 1.44 fold | fold increase in the rate of tibial bone growth [1, 2]: 1.25 fold | % increase in bone length over treatment period, tibia ([1]; 3 weeks, mean±SEM, n=6, untreated 25.6±1.3, p<0.05): 32.7 ±1.6% | % increase in bone length over treatment period, femur ([1]; 3 weeks, mean±SEM, n=6, untreated 27.8±2.3, p<0.05): 40.1±2.0% | angle of deflection of the ischial tuberosity (hip dysplasia) ([1]; CBZ for 3 weeks, 6 weeks of age, untreated MCDS 31.6°, WT 7.7°): 25.4 ° | bone growth rates (WT mice): did not cause a significant increase | hypertrophic zone width (WT mice; CBZ for one week): no effect | collagen X protein localisation (WT mice; tibial growth plate): no effect | level of apoptosis in tibial growth plate chondrocytes (TUNEL) (R992C Col2a1 SEDC mice): did not necessarily reduce
